Source: ChEMBL document CHEMBL5236652, “Neuritogenic steroid glycosides from crown-of-thorns starfish: Possible involvement of p38 mitogen-activated protein kinase and attenuation of cognitive impairment in senescence-accelerated mice (SAMP8) by peripheral administration” (Bioorg Med Chem, 2023)
Active and inactive are the calls of the source. No cut-off for these calls is given here.

Key:
PC-12 [1] = assay: Neuritogenic activity in rat PC-12 cells assessed as induction of neurite outgrowth at 40 uM incubated for 6 days by microscopic analysis; assay type: functional
PC-12 [2] = assay: Neuritogenic activity in rat PC-12 cells assessed as induction of neurite outgrowth at 10 to 40 uM incubated for 6 days by microscopic analysis; assay type: functional, cell-based; conditions: dose 10-40 µM, time 6.0 day
PC-12 [3] = assay: Neuritogenic activity in rat PC-12 cells assessed as induction of neurite outgrowth at 40 uM incubated for 1 to 6 days by microscopic analysis; assay type: functional, cell-based; conditions: time 1-6 day, TDE = time-dependent effect
PC-12 [4] = assay: Neuritogenic activity in rat PC-12 cells assessed as inhibition of neurite outgrowth at 40 uM incubated for 6 days in presence of K252a by microscopic analysis; assay type: functional, cell-based; conditions: time 6.0 day
PC-12 [5] = assay: Neuritogenic activity in rat PC-12 cells overexpressing TrKA assessed as inhibition of neurite outgrowth at 40 uM incubated for 6 days by microscopic analysis; assay type: functional, cell-based; conditions: time 6.0 day
PC-12 [6] = assay: Neuritogenic activity in rat PC-12 cells assessed as effect on TrkA phosphorylation at 40 uM incubated for 4 hrs by Western blot analysis; assay type: functional, cell-based
PC-12 [7] = assay: Neuritogenic activity in rat PC-12 cells assessed as inhibition of neurite outgrowth at 1 uM incubated for 6 days in presence of SB203580 by microscopic analysis; assay type: functional, cell-based; conditions: time 6.0 day
PC-12 [8] = assay: Neuritogenic activity in rat PC-12 cells assessed as inhibition of neurite outgrowth at 40 uM incubated for 6 days in presence of PD98059 by microscopic analysis; assay type: functional, cell-based; conditions: time 6.0 day
PC-12 [9] = assay: Neuritogenic activity in rat PC-12 cells assessed as decrease in ERK phosphorylation at 40 uM and incubated for 1 to 2 hrs by Western blot analysis; assay type: functional, cell-based; conditions: time 1-2 hrs
PC-12 [10] = assay: Neuritogenic activity in rat PC-12 cells assessed as increase in p38 phosphorylation at 40 uM and measured upto 24 hrs by Western blot analysis; assay type: functional, cell-based
PC-12 [11] = assay: Neuritogenic activity in rat PC-12 cells assessed as inhibition of neurite outgrowth at 40 uM incubated for 6 days in presence of […] by microscopic analysis; assay type: functional, cell-based; conditions: time 6.0 day
PC-12 [12] = assay: Neuritogenic activity in rat PC-12 cells assessed as effect on Ras activation at 40 uM incubated for 2 hrs by Western blot analysis; assay type: functional, cell-based
PC-12 [13] = assay: Neuritogenic activity in rat PC-12 cells assessed as effect on Cdc42 activation at 40 uM incubated for 8 to 12 hrs by Western blot analysis; assay type: functional, cell-based; conditions: time 8-12 hrs
PC-12 [14] = assay: Cytotoxicity against rat PC-12 cells assessed as reduction in cell viability upto 40 uM; assay type: toxicity, cell-based; conditions: pc-12, 40 µM
[15] = Toxicity in ICR mouse assessed as effect on body weight at 1 to 10 mg/kg, sc for 14 days; assay type: organism-based; conditions: in vivo, 336 h, dose 1-10 mg/kg, time 14 day
Mus musculus [16] = assay: Cognitive enhancing effect in SAMP8 mouse assessed as longer exploration time at 10 mg/kg, sc for 2 weeks by Novel object recognition test; assay type: functional, organism-based
Mus musculus [17] = assay: Cognitive enhancing effect in SAMP8 mouse assessed as improvement of spontaneous alternation behavior by analyzing entry to different arm at 1 to 10 mg/kg, sc for 2 weeks by Y-maze test; assay type: functional, organism-based; conditions: dose 1-10 mg/kg
Mus musculus [18] = assay: Cognitive enhancing effect in aged ICR mouse assessed as longer exploration time at 10 mg/kg, sc for 2 weeks by novel object recognition test; assay type: functional, organism-based
Mus musculus [19] = assay: Cognitive enhancing effect in SAMP8 mouse assessed as effect on locomotion by analyzing entry to different arm at 1 to 10 mg/kg, sc for 2 weeks by Y-maze test; assay type: functional, organism-based; conditions: dose 1-10 mg/kg
Mus musculus [20] = assay: Cognitive enhancing effect in aged ICR mouse assessed as improvement of spontaneous alternation behavior by analyzing entry to different arm at 10 mg/kg, sc for 2 weeks by Y-maze test; assay type: functional, organism-based
[21] = Drug uptake in ICR mouse blood at 10 mg/kg,sc and measured upto 120 mins by LC-MS analysis; assay type: ADME, organism-based; conditions: read-out: Drug uptake
[22] = Drug uptake in ICR mouse brain at 10 mg/kg,sc and measured upto 120 mins by LC-MS analysis; assay type: ADME, organism-based; conditions: read-out: Drug uptake
[23] = Drug uptake in ICR mouse blood at 10 mg/kg,sc and measured at 60 mins by LC-MS analysis; assay type: ADME, organism-based; conditions: read-out: Drug uptake
[24] = Drug uptake in ICR mouse brain at 10 mg/kg,sc and measured at 60 mins by LC-MS analysis; assay type: ADME, organism-based; conditions: read-out: Drug uptake

For CO[C@H]1[C@H](O[C@@H]2C=C3[C@H](O)C[C@@]4(O)[C@@H]5[C@@H](O)[C@H](O)[C@H]([C@H](C)CC[C@H](CO[C@@H]6OC[C@@H](O)[C@H](O)[C@H]6O)C(C)C)[C@@]5(C)CC[C@@H]4[C@@]3(C)CC2)OC[C@@H](O)[C@@H]1O, the Activity (PC-12 [1]; time 6 day) was 43%, the Activity (PC-12 [2]) was “Dose-Dependent Effect” and the Activity (PC-12 [3]) was “Tde”. For the same molecule, the Activity (PC-12 [4]) was “inactive”, the Activity (PC-12 [5]) was “inactive” and the Activity (PC-12 [6]) was “inactive”. For the same molecule, the Activity (PC-12 [7]) was “inactive”, the Activity (PC-12 [8]) was “inactive” and the Activity (PC-12 [9]) was “Active”. The Activity (PC-12 [10]) was “Active”, the Activity (PC-12 [11]) was “inactive” and the Activity (PC-12 [12]) was “inactive”. For the same molecule, the Activity (PC-12 [13]) was “Active”, the Activity (PC-12 [14]) was “Non-Toxic” and the Activity [15] was “Non-Toxic”. The Activity (Mus musculus [16]) was “Active”, the Activity (Mus musculus [17]) was “Active” and the Activity (Mus musculus [18]) was “Active”. The Activity (Mus musculus [19]) was “inactive”, the Activity (Mus musculus [20]) was “Active” and the concentration at 2 h [21] was 7.7 ng/mL. The concentration at 2 h [22] was 5 ng/g, the concentration at 1 h [23] was 2000 ng/mL and the concentration at 1 h [24] was 30 ng/g.

CO[C@@H]1[C@@H](O)[C@H](OC[C@@H](CC[C@@H](C)[C@H]2[C@@H](O)[C@H](O)[C@@H]3[C@]2(C)CC[C@H]2[C@@]3(O)C[C@@H](O)C3=C[C@@H](O[C@@H]4OC[C@@H](O)[C@H](O)[C@H]4OC)CC[C@@]32C)C(C)C)OC[C@H]1O gave an Activity (PC-12 [1]; time 6 day) of 43%.

With CO[C@H]1[C@H](O[C@@H]2C=C3[C@H](O)C[C@@]4(O)[C@@H]5[C@@H](O)[C@H](O)[C@H]([C@H](C)CC[C@H](CO)C(C)C)[C@@]5(C)CC[C@@H]4[C@@]3(C)CC2)OC[C@@H](O)[C@@H]1O the Activity (PC-12 [1]; time 6.0 day) was “inactive”.
